Measurements as given in patent US8283324B2, “Immunomodulatory and anti-tumour peptides” (Centro de Ingenieria Genetica y Biotecnologia, priority 2006, dated 2012).

Experiments:
[1] = system: IL-12 gene; assay: IL-12 gene expression in human mononuclear cells (RT-PCR); assay type: cell-based; details: 40 μg/ml, 18 h; mRNA normalized against β-actin; FIG. 3A
Procedure: (§1) For this assay, human mononuclear cells were isolated by a Ficoll-Hypaque gradient from a leukocyte concentrate or “Buffy Coat” of a donor. Up to 5×10^6 were seeded in 24-well plates in RPMI 1640 medium supplemented with 10% calf fetal serum. Each peptide was further added at 40 μg/ml in a 0.1 ml volume of RPMI medium and cells were cultured for 18 h at 37° C. and 5% of CO2. Total RNA was extracted by using the TriReagent method. Afterwards, the expressions of IFN-α, IFN-γ and IL-12 genes were determined by the reverse transcription reaction and PCR amplification (RT-PCR kit, Perkin Elmer). Results are shown as relative amounts of messenger RNA normalized against expression levels of the β-actin housekeeping gene.

[2] = system: IFN-γ gene; assay: IFN-γ gene expression in human mononuclear cells (RT-PCR); assay type: cell-based; details: 40 μg/ml, 18 h; mRNA normalized against β-actin; FIG. 3A
Procedure: as §1

[3] = system: TC-1 tumor cells; assay: anti-tumoral effect in the TC-1 tumor model; assay type: in vivo; details: 4 mg per kg s.c.; for survival of mice / tumor progression (tumor mass): at 100 mm^3 tumor volume and after 10 days, FIG. 4; for survival of animals compared to the LALF32-51 peptide: Log Rank, *p<0.05
Procedure: Eight-to-ten weeks-old C57BI/6 female mice were used for this assay (n=10 animals per experimental group). For tumor graft, TC-1 tumor cells derived from C57BI/6 malignant epithelial lung cells were used, being resuspended in phosphate-buffered saline (PBS). An amount of 50,000 cells in a 200 μl volume was inoculated to mice by subcutaneous route in the right hind limb. The first peptide administration was carried out by subcutaneous route in the right flank once tumor reached a 100 mm^3 volume, and the second was carried out after 10 days. In this assay, a 4 mg per kg of weight dose was evaluated (80 μg/mice). Animal survival and tumor mass were the parameters evaluated to measure the anti-tumoral effect peptides of interest, as shown in FIGS. 4A and 4B. […] The Log Rank method was used as statistical analysis for detecting significant differences between groups.

[4] = competition ELISA for LPS-binding capacity; set-up: species or system E. coli; details: competition with biotinylated LALF32-51 at 0.2 μM; analogous peptides 10 μM to 0.01 μM; FIG. 1A
Procedure: This assay consists on a competition ELISA system (Hardy E., et al (1994) Enhanced ELISA sensitivity using TCA for efficient coating of biologically active LPS or Lipid A to the solid phase. J. Immunol. Meth. Vol. 176:111-116). Polystyrene plates (Costar, USA) were coated with LPS from E. coli 0111:B4 (1 μg/ml) with 0.2% trichloroacetic acid (TCA). Plates were incubated overnight at 37° C. and further washed ten times with 1× phosphate-buffered saline (1×PBS) plus 0.1% tween-20 (washing solution). The binding of analogous peptides to the LPS fixed to the solid surface was evaluated by a competition ELISA with the biotinylated LALF32-51 peptide at 0.2 μM, obtaining a 90% of maximum LPS binding. To estimate the inhibition curves, different concentrations of the analogous peptides were used, from 10 μM to 0.01 μM and the curve of the LALF32-51 peptide as experimental control. The biotinylated LALF32-51 was incubated in the presence of the analogous peptides for 2 h at 37° C. and plates were washed 5 times after that time with washing solution. The biotinylated LALF32-51 bound to LPS was detected by incubating for 45 min at 37° C. with a streptavidin-peroxidase conjugate at a 1:2,000 dilution. Plates were washed 5 times with washing solution and the substrate solution was added (0.05 M citrate-phosphate buffer, pH 5.5, 1 tablet of 3,3′,5,5′-tetramethylbenzidine and 0.025% hydrogen peroxide). After 15 min incubation, the reaction was stopped by adding 2 M sulphuric acid. The absorbance was quantified at 450 nm in a plate reader (Sensident Scan). There is a correlation between optical density values and the LPS-binding capacity of analogous peptides. Analogous peptides with higher LPS-binding capacity show inhibition curves of lower O.D. compared to the inhibition curve of the LALF32-51 peptide.
Analogous peptides with lower LPS-binding capacity present inhibition curves with […], compared to the inhibition curve of the LALF32-51 peptide.
FIG. 1B represents the inhibition percentages of analogous peptides, at a fixed […] concentration, according to their capacity to displace the binding of the biotinylated LALF32-51 (0.2 μM) to LPS adsorbed to the solid surface. % de inhibición={1−(([O.D.]sample−[O.D.]min)/([O.D.]max−[O.D.]min))}×100 [O.D.] sample: Optical density value in the presence of a fixed concentration of analogous peptides; [O.D.] min: ELISA background; [O.D.] max: Optical density value without analogous peptides.

[5] = system: IFN-α gene; assay: IFN-α gene expression in human mononuclear cells (RT-PCR); assay type: cell-based; details: 40 μg/ml, 18 h; for expression of the IFN-α gene: mRNA normalized against β-actin, FIG. 3A; for expression of the IFN-α gene compared to the LALF32-51 peptide: FIG. 3B
Procedure: as §1

[6] = competition ELISA for heparin-binding capacity; details: for heparin binding: peptides at 2 μM with 250 units of heparin, FIG. 2
Procedure: This assay consists on a competition ELISA system, similar to the previously described one. The biotinylated LALF32-51 peptide was adsorbed to polystyrene plates (Costar, USA) in 1×PBS and incubated overnight at 4° C. Analogous peptides L-2, L-8, L-12 and L-20 were mixed at 2 μM with 250 units of heparin (Sodic Heparin, 5,000 U/ml, Liorad) in 1×PBS plus 0.1% of bovine serum albumin (BSA). Afterwards, mixes were added to an ELISA plate containing 0.02 μM of the biotinylated LALF32-51 peptide adsorbed to the solid surface. After a 1 h-incubation at room temperature, plates were washed five times with washing solution and the biotinylated LALF32-51 peptide fixed to the solid surface was detected by incubating for 45 min at 37° C. with streptavidin-peroxidase conjugate at a 1:2,000. Afterwards, plates were washed five times with washing solution and the substrate solution was added. After an additional incubation for 15 min, the reactions were stopped with 2 M sulphuric acid solution. The lack of heparin binding to the analogous peptides correlates with the […] optical density, because they are unable to displace the heparin bound to the biotinylated LALF32-51 peptide adsorb to the solid surface. The unlabeled LALF32-51 peptide at a 100× molar excess was used as control of the assay.

In the case of “HYRIKPTFRRLKWKYKGKFA [Peptide L-20, alanine-substituted analogue of LALF 32-51]”, the “expression of the IL-12 gene” value [1] is reported as “capable of inducing the expression”, the “expression of the IFN-γ gene” value [2] is reported as “capable of inducing the expression” and the survival of mice [3] is reported as “prolonging survival of mice”. The “tumor progression (tumor mass)” value [3] was “effective for inhibiting tumor progression”, the “survival of animals compared to the LALF32-51 peptide” value [3] was “significantly increase the survival of animals” and the LPS-binding capacity [4] was “lose the capacity to bind LPS”. The “expression of the IFN-α gene” value [5] was “capable of inducing the expression” and the heparin binding [6] was “unable to bind heparin”.

In the case of “HYRIKPTFARLKWKYKGKFW [Peptide L-9, alanine-substituted analogue of LALF 32-51]”, the LPS-binding capacity [4] is reported as “retaining that capacity”.

In the case of “HYAIKPTFRRLKWKYKGKFW [Peptide L-3, alanine-substituted analogue of LALF 32-51]”, the LPS-binding capacity [4] is reported as “higher LPS binding capacity”.

For “HYRIKPTFRRLAWKYKGKFW [Peptide L-12, alanine-substituted analogue of LALF 32-51]”, the “expression of the IL-12 gene” value [1] was “capable of inducing the expression”, the “expression of the IFN-γ gene” value [2] was “capable of inducing the expression” and the survival of mice [3] was “prolonging survival of mice”. For the same sequence, the “tumor progression (tumor mass)” value [3] was “effective for inhibiting tumor progression”, the “survival of animals compared to the LALF32-51 peptide” value [3] was “significantly increase the survival of animals” and the LPS-binding capacity [4] was “lose the capacity to bind LPS”. The “expression of the IFN-α gene compared to the LALF32-51 peptide” value [5] was “more effective”, the “expression of the IFN-α gene” value [5] was “capable of inducing the expression” and the heparin binding [6] was “unable to bind heparin”.

With “HYRIKPTARRLKWKYKGKFW [Peptide L-8, alanine-substituted analogue of LALF 32-51]” the “expression of the IL-12 gene” value [1] was “capable of inducing the expression”, the “expression of the IFN-γ gene” value [2] was “capable of inducing the expression” and the survival of mice [3] was “prolonging survival of mice”. For the same sequence, the “tumor progression (tumor mass)” value [3] was “effective for inhibiting tumor progression”, the “survival of animals compared to the LALF32-51 peptide” value [3] was “significantly increase the survival of animals” and the LPS-binding capacity [4] was “lose the capacity to bind LPS”. For the same sequence, the “expression of the IFN-α gene compared to the LALF32-51 peptide” value [5] was “more effective”, the “expression of the IFN-α gene” value [5] was “capable of inducing the expression” and the heparin binding [6] was “unable to bind heparin”.

In the case of “HYRIKPTFRRLKWKYKGKAW [Peptide L-19, alanine-substituted analogue of LALF 32-51]”, the LPS-binding capacity [4] is reported as “retaining that capacity”.

For “HYRIKPTFRRLKWKYKGKFW [LALF32-51, reference compound]”, the “heparin binding (assay control)” value ([6]; unlabeled peptide at a 100× molar excess) was “binding to heparin”.
